Test results as given in ChEMBL document CHEMBL1201862, “PubChem BioAssay data set” (2004).
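How tested: cells in 96-well plates exposed to compound for 48 hours at five concentrations. GI50 is the concentration that inhibits growth by half.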 Active and inactive are the calls of the source. Rule as the data show it: active = GI50 up to about 1.1 µM and inactive = higher.

Columns and labels:
Test in all cases: NCI tumour cell line growth inhibition, 48 h
786-0 = tested on: 786-0
CCRF-CEM = tested on: CCRF-CEM
COLO 205 = tested on: COLO 205
HCT-15 = tested on: HCT-15
HL-60 = tested on: HL-60
KM12 = tested on: KM12
LOX IMVI = tested on: LOX IMVI
MOLT-4 = tested on: MOLT-4
Malme-3M = tested on: Malme-3M
RPMI-8226 = tested on: RPMI-8226
SK-MEL-28 = tested on: SK-MEL-28
SK-MEL-5 = tested on: SK-MEL-5
SK-OV-3 = tested on: SK-OV-3
SN12C = tested on: SN12C
TK-10 = tested on: TK-10
U-251 = tested on: U-251
UACC-257 = tested on: UACC-257
UACC-62 = tested on: UACC-62
SK-MEL-2 = tested on: SK-MEL-2

| SMILES | GI50 (786-0) | GI50 (CCRF-CEM) | GI50 (COLO 205) | GI50 (HCT-15) [µM] | GI50 (HL-60) | GI50 (KM12) | GI50 (LOX IMVI) | GI50 (MOLT-4) | GI50 (Malme-3M) | GI50 (RPMI-8226) | GI50 (SK-MEL-28) | GI50 (SK-MEL-5) | GI50 (SK-OV-3) | GI50 (SN12C) | GI50 (TK-10) | GI50 (U-251) | GI50 (UACC-257) | GI50 (UACC-62) | GI50 (SK-MEL-2) |
| --- | --- | --- | --- | --- | --- | --- | --- | --- | --- | --- | --- | --- | --- | --- | --- | --- | --- | --- | --- |
| CC#CC(O)(C(=O)OC1CC(C)N(C)C(C)(C)C1)C1CCCC1 (stereo not drawn) | > 100 µM (inactive) | > 100 µM (inactive) | > 100 µM (inactive) | > 100 | > 100 µM (inactive) | > 100 µM (inactive) | > 100 µM (inactive) | > 100 µM (inactive) | > 100 µM (inactive) | > 100 µM (inactive) | > 100 µM (inactive) | > 100 µM (inactive) | > 100 µM (inactive) | > 100 µM (inactive) | > 100 µM (inactive) | > 100 µM (inactive) | > 100 µM (inactive) | > 100 µM (inactive) | – |
| CCOC(=O)CNc1c(OCc2ccccc2)c(=O)c1=O | > 100 µM (inactive) | > 100 µM (inactive) | > 100 µM (inactive) | > 100 | – | > 100 µM (inactive) | – | > 100 µM (inactive) | > 100 µM (inactive) | > 100 µM (inactive) | > 100 µM (inactive) | > 100 µM (inactive) | > 100 µM (inactive) | > 100 µM (inactive) | > 100 µM (inactive) | > 100 µM (inactive) | > 100 µM (inactive) | > 100 µM (inactive) | > 100 µM (inactive) |
| Cc1c(CN2CCN(C)CC2)c(CN2CCN(C)CC2)c(C)n1-c1ccc(Cl)cc1 | 16.9 µM (inactive) | 19.3 µM (inactive) | 20.4 µM (inactive) | 47 | – | 34 µM (inactive) | – | 30.3 µM (inactive) | 20.9 µM (inactive) | 47.2 µM (inactive) | 19.5 µM (inactive) | 16.8 µM (inactive) | > 100 µM (inactive) | > 100 µM (inactive) | 17.5 µM (inactive) | 40.2 µM (inactive) | 14.2 µM (inactive) | 16.7 µM (inactive) | 21.3 µM (inactive) |
| CCOC(=O)c1cc(-c2ccn(C(C)=O)c2)c(-c2cc(C)co2)[nH]1 | > 100 µM (inactive) | > 100 µM (inactive) | > 100 µM (inactive) | > 100 | > 100 µM (inactive) | > 100 µM (inactive) | > 100 µM (inactive) | > 100 µM (inactive) | > 100 µM (inactive) | > 100 µM (inactive) | > 100 µM (inactive) | > 100 µM (inactive) | – | > 100 µM (inactive) | > 100 µM (inactive) | > 100 µM (inactive) | > 100 µM (inactive) | > 100 µM (inactive) | > 100 µM (inactive) |
| COc1cccc(/C=N/[N+](C)(C)C)c1O | > 10 µM (inactive) | > 10 µM (inactive) | > 10 µM (inactive) | > 10 | > 10 µM (inactive) | > 10 µM (inactive) | > 10 µM (inactive) | > 10 µM (inactive) | > 10 µM (inactive) | > 10 µM (inactive) | > 10 µM (inactive) | > 10 µM (inactive) | > 10 µM (inactive) | > 10 µM (inactive) | > 10 µM (inactive) | > 10 µM (inactive) | > 10 µM (inactive) | > 10 µM (inactive) | > 10 µM (inactive) |
| CC1(C)CCCCC1/C=C/C(CC(O)(C(F)(F)F)C(F)(F)F)=N\Nc1ccc([N+](=O)[O-])cc1[N+](=O)[O-] (stereo not drawn) | 1.92 µM (inactive) | 0.662 µM (active) | 1.18 µM (inactive) | 1.32 | 1.38 µM (inactive) | 2.68 µM (inactive) | 1.78 µM (inactive) | 0.807 µM (active) | 4.51 µM (inactive) | 0.33 µM (active) | 4.23 µM (inactive) | 0.395 µM (active) | 0.979 µM (active) | 2.13 µM (inactive) | 0.546 µM (active) | 2.33 µM (inactive) | 0.962 µM (active) | 1.02 µM (active) | 3.18 µM (inactive) |
| COCN1C(=O)[C@@H]2CCCN2C(=O)c2cc([N+](=O)[O-])ccc21 | > 100 µM (inactive) | – | 81.3 µM (inactive) | > 100 | – | > 100 µM (inactive) | 26.3 µM (inactive) | – | 88.5 µM (inactive) | – | > 100 µM (inactive) | 70.1 µM (inactive) | 44.7 µM (inactive) | > 100 µM (inactive) | > 100 µM (inactive) | 42 µM (inactive) | > 100 µM (inactive) | 85.7 µM (inactive) | 64.1 µM (inactive) |
| COc1ccc(OCC(=O)O)c2c1CCC(C)C2=O (stereo not drawn) | > 100 µM (inactive) | > 100 µM (inactive) | > 100 µM (inactive) | > 100 | > 100 µM (inactive) | > 100 µM (inactive) | > 100 µM (inactive) | > 100 µM (inactive) | > 100 µM (inactive) | > 100 µM (inactive) | > 100 µM (inactive) | > 100 µM (inactive) | > 100 µM (inactive) | > 100 µM (inactive) | > 100 µM (inactive) | > 100 µM (inactive) | > 100 µM (inactive) | > 100 µM (inactive) | > 100 µM (inactive) |
| CC12ON=C(c3ccccc3)N1C=CN1C(c3ccccc3)=NOC12 (stereo not drawn) | > 100 µM (inactive) | – | 37.2 µM (inactive) | > 100 | – | > 100 µM (inactive) | > 100 µM (inactive) | – | > 100 µM (inactive) | – | – | 13 µM (inactive) | > 100 µM (inactive) | – | > 100 µM (inactive) | – | > 100 µM (inactive) | > 100 µM (inactive) | – |
| CCCC(=O)n1[nH]c(=O)n(C(C)(C)C)c1=O | > 100 µM (inactive) | > 100 µM (inactive) | > 100 µM (inactive) | > 100 | > 100 µM (inactive) | > 100 µM (inactive) | > 100 µM (inactive) | > 100 µM (inactive) | 44.1 µM (inactive) | > 100 µM (inactive) | > 100 µM (inactive) | > 100 µM (inactive) | > 100 µM (inactive) | > 100 µM (inactive) | > 100 µM (inactive) | > 100 µM (inactive) | > 100 µM (inactive) | > 100 µM (inactive) | > 100 µM (inactive) |
| COC(=O)[C@]12CSCN1C(=O)C(C(C)=O)=NN2C(=O)[C@](OC)(c1ccccc1)C(F)(F)F | > 100 µM (inactive) | > 10 µM (inactive) | > 100 µM (inactive) | > 100 | > 10 µM (inactive) | > 100 µM (inactive) | > 100 µM (inactive) | > 100 µM (inactive) | > 100 µM (inactive) | > 100 µM (inactive) | > 100 µM (inactive) | > 100 µM (inactive) | – | > 100 µM (inactive) | > 100 µM (inactive) | > 100 µM (inactive) | – | > 100 µM (inactive) | > 100 µM (inactive) |
| Cc1cc2[nH]c3c(C#N)c(-c4ccccc4)c(/C=N/c4cccc(C(F)(F)F)c4)c(=O)n3c2cc1C | 94 µM (inactive) | 72.8 µM (inactive) | > 100 µM (inactive) | 74.1 | – | 38.4 µM (inactive) | 97.9 µM (inactive) | – | > 100 µM (inactive) | 70 µM (inactive) | > 100 µM (inactive) | > 100 µM (inactive) | 99.5 µM (inactive) | 89.9 µM (inactive) | > 100 µM (inactive) | > 100 µM (inactive) | > 100 µM (inactive) | – | > 100 µM (inactive) |
| Cc1cc(N)c(C)c2c1[nH]c1ccc(O)cc12 | 91.8 µM (inactive) | 20.7 µM (inactive) | 47.9 µM (inactive) | > 100 | 79.3 µM (inactive) | > 100 µM (inactive) | > 100 µM (inactive) | 32.4 µM (inactive) | > 100 µM (inactive) | 48.4 µM (inactive) | > 100 µM (inactive) | – | – | > 100 µM (inactive) | 66.8 µM (inactive) | 88.5 µM (inactive) | > 100 µM (inactive) | – | > 100 µM (inactive) |
| CS(=O)(=O)c1ccc(-c2cc(-c3ccc(S(C)(=O)=O)cc3)[n+](-c3cc(-c4ccccc4)c([O-])c(-c4ccccc4)c3)c(-c3ccc(S(C)(=O)=O)cc3)c2)cc1 | > 100 µM (inactive) | – | > 100 µM (inactive) | > 100 | – | > 100 µM (inactive) | > 100 µM (inactive) | > 100 µM (inactive) | > 100 µM (inactive) | > 100 µM (inactive) | > 100 µM (inactive) | – | – | > 100 µM (inactive) | > 100 µM (inactive) | > 100 µM (inactive) | 38.5 µM (inactive) | > 100 µM (inactive) | > 100 µM (inactive) |
| CC(=O)O[C@H]1C(=O)[C@@]2(C)C(C(OC(=O)c3ccccc3)[C@]3(O)CC(OC(=O)C(O)C(NC(=O)c4ccc(C)cc4)c4ccccc4)C(C)=C1C3(C)C)[C@]1(OC(C)=O)CO[C@@H]1C[C@@H]2O (stereo partly drawn) | 0.0074 µM (active) | 0.00365 µM (active) | < 0.0025 µM (active) | 0.173 | < 0.0025 µM (active) | < 0.0025 µM (active) | 0.00352 µM (active) | < 0.0025 µM (active) | 0.0043 µM (active) | < 0.0025 µM (active) | – | 0.00402 µM (active) | < 0.0025 µM (active) | 0.0112 µM (active) | 0.0588 µM (active) | 0.00315 µM (active) | 0.00708 µM (active) | 0.0199 µM (active) | < 0.0025 µM (active) |
| CN(C)c1ccc(/C=N/C23CC4CC(CC(C4)C2)C3)cc1 | > 100 µM (inactive) | > 100 µM (inactive) | > 100 µM (inactive) | > 100 | > 100 µM (inactive) | > 100 µM (inactive) | > 100 µM (inactive) | > 100 µM (inactive) | > 100 µM (inactive) | > 100 µM (inactive) | > 100 µM (inactive) | > 10 µM (inactive) | > 100 µM (inactive) | > 100 µM (inactive) | > 100 µM (inactive) | > 100 µM (inactive) | > 100 µM (inactive) | > 100 µM (inactive) | > 100 µM (inactive) |
